Results taken from patent publication US9914730B2, “Azaquinazoline inhibitors of Atypical protein Kinase C” (Ignyta, Inc., priority 2012, dated 2018).
pIC50: −log10 of the molar value.

Target: T1, full-length human PKCι (Homo sapiens, UniProt P41743)
T1 construct: Recombinant, full-length human PKCι expressed in Sf21 insect cells is also commercially available; purchased; host or cells: Sf21 insect cells
T1 sequence (P41743 1-596): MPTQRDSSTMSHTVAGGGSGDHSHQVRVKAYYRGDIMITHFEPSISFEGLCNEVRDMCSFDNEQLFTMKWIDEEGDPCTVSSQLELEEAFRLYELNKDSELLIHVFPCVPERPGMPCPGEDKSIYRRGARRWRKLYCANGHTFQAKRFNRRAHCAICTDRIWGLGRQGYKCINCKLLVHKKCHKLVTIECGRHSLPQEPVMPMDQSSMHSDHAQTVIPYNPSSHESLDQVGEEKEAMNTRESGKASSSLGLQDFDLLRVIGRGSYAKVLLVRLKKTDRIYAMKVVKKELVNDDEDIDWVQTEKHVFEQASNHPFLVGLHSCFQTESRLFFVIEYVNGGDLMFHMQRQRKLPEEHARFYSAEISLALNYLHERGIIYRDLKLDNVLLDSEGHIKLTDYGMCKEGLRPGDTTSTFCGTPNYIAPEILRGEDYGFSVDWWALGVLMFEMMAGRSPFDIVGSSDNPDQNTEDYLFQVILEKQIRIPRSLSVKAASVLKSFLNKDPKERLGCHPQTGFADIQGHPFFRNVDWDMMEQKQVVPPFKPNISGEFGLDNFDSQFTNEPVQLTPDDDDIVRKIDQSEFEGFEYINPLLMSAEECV
Assay: PKCι IC50 IMAP assay, full-length PKCι at 150 μM ATP
Assay type: biochemical
Conditions: read-out: IC50 in IMAP assay against full length PKCi at 150 μM ATP
How it was run: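 Dose-response IC50 values come from IMAP fluorescence polarisation after 60 min room-temperature turnover of 100 nM FAM peptide by ~15 pM insect-cell-expressed full-length PKCι at 150 μM ATP (5× KM^APP), normalised to no-compound and no-enzyme controls.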

Compound | pIC50
CN1CCN(c2cccc(Nc3cc(-c4nc(N5CCC[C@H](O)C5)c5c(C6CC6)cncc5n4)ccn3)c2)CC1 [Example 737, (S)-1-(5-Cyclopropyl-2-{2-[3-(4-methyl-piperazin-1-yl)-phenylamino]-pyridin-4-yl}-pyrido[3,4-d]pyrimidin-4-yl)-piperidin-3-ol] | > 7.00
COc1cncc2nc(-c3ccnc(Nc4c(C)cccc4F)c3)nc(N3CCNCC3)c12 [Example 422, (2-Fluoro-6-methyl-phenyl)-[4-(5-methoxy-4-piperazin-1-yl-pyrido[3,4-d]pyrimidin-2-yl)-pyridin-2-yl]-amine] | > 7.00
(3-Chloro-2,6- difluoro-phenyl)- [4-(5-cyclopropyl- 4-piperazin-1-yl- pyrido[3,4- d]pyrimidin-2-yl)- pyridin-2-yl]- amine [Example 649] | > 7.00
c1cc(-c2nc(N3CCNCC3)c3c(C4CC4)cncc3n2)cc(N[C@@H]2C[C@H]3CC[C@@H]2C3)n1 (racemic) [Example 695, (+/−)-(1RS,2RS,4SR)-Bicyclo[2.2.1]hept-2-yl-[4-(5-cyclopropyl-4-piperazin-1-yl-pyrido[3,4-d]pyrimidin-2-yl)-pyridin-2-yl]-amine] | > 7.00
COc1cncc2nc(-c3ccnc(NC(=O)c4ccccc4)c3)nc(N3CCNCC3)c12 [Example 212, N-[4-(5-Methoxy-4-piperazin-1-yl-pyrido[3,4-d]pyrimidin-2-yl)-pyridin-2-yl]-benzamide] | > 7.00
O=C(NCCN1CCCC1)C1CCN(c2nc(-c3ccnc(Nc4c(F)cccc4F)c3)nc3cncc(C4CC4)c23)CC1 [Example 668, 1-{5-Cyclopropyl-2-[2-(2,6-difluoro-phenylamino)-pyridin-4-yl]-pyrido[3,4-d]pyrimidin-4-yl}-piperidine-4-carboxylic acid (2-pyrrolidin-1-yl-ethyl)-amide] | > 7.00
Fc1ccnc(F)c1Nc1cc(-c2nc(N3CCNCC3)c3c(C4CC4)cncc3n2)ccn1 [Example 670, [4-(5-Cyclopropyl-4-piperazin-1-yl-pyrido[3,4-d]pyrimidin-2-yl)-pyridin-2-yl]-(2,4-difluoro-pyridin-3-yl)-amine] | > 7.00
O=C(Nc1cc(-c2nc(N3CCNCC3)c3c(C4CC4)cncc3n2)ccn1)C1CC1 [Example 584, Cyclopropane-carboxylic acid [4-(5-cyclopropyl-4-piperazin-1-yl-pyrido[3,4-d]pyrimidin-2-yl)-pyridin-2-yl]-amide] | > 7.00
COc1cncc2nc(-c3ccnc(Nc4ccccc4)c3)nc(N3CCC(O)C(O)C3)c12 (single isomer, unassigned) [Example 464, (3S,4R)-1-[5-Methoxy-2-(2-phenylamino-pyridin-4-yl)-pyrido[3,4-d]pyrimidin-4-yl]-piperidine-3,4-diol or (3R,4S)-1-[5-Methoxy-2-(2-phenylamino-pyridin-4-yl)-pyrido[3,4-d]pyrimidin-4-yl]-piperidine-3,4-diol] | 6.00 to 7.00
Fc1cnc(Nc2cc(-c3nc(N4CCNCC4)c4c(C5CCC5)cncc4n3)ccn2)c(F)c1 [Example 783, [4-(5-Cyclobutyl-4-piperazin-1-yl-pyrido[3,4-d]pyrimidin-2-yl)-pyridin-2-yl]-(3,5-difluoro-pyridin-2-yl)-amine] | > 7.00
[2H]c1c([2H])c([2H])c(Nc2cc(-c3nc(N4CCNCC4)c4c(C5CC5)cncc4n3)ccn2)c([2H])c1[2H] [Example 559, [4-(5-Cyclopropyl-4-piperazin-1-yl-pyrido[3,4-d]pyrimidin-2-yl)-pyridin-2-yl]-pentdeuterio-phenyl-amine] | > 7.00
COc1ccc(F)c(Nc2cc(-c3nc(N4CCNCC4)c4c(C5CC5)cncc4n3)ccn2)c1Cl [Example 634, (2-Chloro-6-fluoro-3-methoxy-phenyl)-[4-(5-cyclopropyl-4-piperazin-1-yl-pyrido[3,4-d]pyrimidin-2-yl)-pyridin-2-yl]-amine] | > 7.00
CN1CCN(c2cccc(Nc3cc(-c4nc(N5CCC(O)CC5)c5c(C6CC6)cncc5n4)ccn3)c2)CC1 [Example 688, 1-(5-Cyclopropyl-2-{2-[3-(4-methyl-piperazin-1-yl)-phenylamno]-pyridin-4-yl}-pyrido[3,4-d]pyrimidin-4-yl)-piperidin-4-ol] | > 7.00
COc1cc(Nc2cc(-c3nc(N4CCNCC4)c4c(C5CC5)cncc4n3)ccn2)ccc1F [Example 627, [4-(5-Cyclopropyl-4-piperazin-1-yl-pyrido[3,4-d]pyrimidin-2-yl)-pyridin-2-yl]-(4-fluoro-3-methoxy-phenyl)-amine] | > 7.00
Fc1cccc(F)c1Nc1cc(-c2nc(N3CCNC4CC43)c3c(C4CC4)cncc3n2)ccn1 (stereo not drawn) [Example 538, {4-[5-Cyclopropyl-4-(2,5-diaza-bicyclo-[4.1.0]hept-2-yl)-pyrido[3,4-d]pyrimidin-2-yl]-pyridin-2-yl}-(2,6-difluoro-phenyl)-amine] | > 7.00
COc1cncc2nc(-c3ccnc(Nc4ccccc4)c3)nc(N3CCC(O)C(O)C3)c12 (single isomer, unassigned) [Example 457, (3R,4R)-1-[5-Methoxy-2-(2-phenylamino-pyridin-4-yl)-pyrido[3,4-d]pyrimidin-4-yl]-piperidine-3,4-diol or (3S,4S)-1-[5-Methoxy-2-(2-phenylamino-pyridin-4-yl)-pyrido[3,4-d]pyrimidin-4-yl]-piperidine-3,4-diol] | 6.00 to 7.00
COc1cncc2nc(-c3ccnc(Nc4cc(Cl)ccn4)c3)nc(N3CCNCC3)c12 [Example 365, (4-Chloro-pyridin-2-yl)-[4-(5-methoxy-4-piperazin-1-yl-pyrido[3,4-d]pyrimidin-2-yl)-pyridin-2-yl]-amine] | > 7.00
Fc1cc(F)c(F)c(Nc2cc(-c3nc(N4CCNCC4)c4c(C5CC5)cncc4n3)ccn2)n1 [Example 774, [4-(5-Cyclopropyl-4-piperazin-1-yl-pyrido[3,4-d]pyrimidin-2-yl)-pyridin-2-yl]-(3,4,6-trifluoro-pyridin-2-yl)-amine] | > 7.00

Continued, values first:

pIC50 | Compound
> 7.00 | C[C@@H](Nc1cc(-c2nc(N3CCNCC3)c3c(C4CC4)cncc3n2)ccn1)c1ccccc1F [Example 2067, [4-(5-Cyclopropyl-4-piperazin-1-yl-pyrido[3,4-d]pyrimidin-2-yl)-pyridin-2-yl]-[(R)-1-(2-fluoro-phenyl)-ethyl]-amine]
> 7.00 | N[C@H]1CCCN(c2nc(-c3ccnc(Nc4ncc(F)cc4F)c3)nc3cncc(C4CC4)c23)C1 [Example 2198, {4-[4-(3-Amino-piperidin-1-yl)-5-cyclopropyl-pyrido[3,4-d]pyrimidin-2-yl]-pyridin-2-yl}-(3,5-difluoro-pyridin-2-yl)-amine]
6.00 to 7.00 | CN1CCC(Sc2nc(-c3ccnc(Nc4c(F)cccc4F)c3)nc3cncc(C4CC4)c23)CC1 [Example 2128, {4-[5-Cyclopropyl-4-(1-methyl-piperidin-4-ylsulfanyl)-pyrido[3,4-d]pyrimidin-2-yl]-pyridin-2-yl}-(2,6-difluoro-phenyl)-amine]
> 7.00 | c1cc(-c2nc(N3CCNCC3)c3c(C4CC4)cncc3n2)c2cc(C3CCOC3)[nH]c2n1 (stereo not drawn) [Example 2192, 5-Cyclopropyl-4-piperazin-1-yl-2-[2-(tetrahydro-furan-3-yl)-1H-pyrrolo[2,3-b]pyridin-4-yl]-pyrido[3,4-d]pyrimidine]
> 7.00 | CCn1cc(Cl)c(Nc2cc(-c3nc(N4CCNCC4)c4c(C5CC5)cncc4n3)ccn2)n1 [Example 2015, (4-Chloro-1-ethyl-1H-pyrazol-3-yl)-[4-(5-cyclopropyl-4-piperazin-1-yl-pyrido[3,4-d]pyrimidin-2-yl)-pyridin-2-yl]-amine]
> 7.00 | FC(F)c1cc2c(-c3nc(N4CCNCC4)c4c(C5CC5)cncc4n3)ccnc2[nH]1 [Example 2106, 5-Cyclopropyl-2-(2-difluoromethyl-1H-pyrrolo[2,3-b]pyridin-4-yl)-4-piperazin-1-yl-pyrido[3,4-d]pyrimidine]
> 7.00 | CN(c1nc(-c2ccnc(Nc3c(F)cccc3F)c2)nc2cncc(C3CC3)c12)[C@@H]1CCNC1 [Example 2057, {5-Cyclopropyl-2-[2-(2,6-difluoro-phenylamino)-pyridin-4-yl]-pyrido[3,4-d]pyrimidin-4-yl}-methyl-(R)-pyrrolidin-3-yl-amine]
> 7.00 | FC(F)(F)Cn1cc(Cl)c(Nc2cc(-c3nc(N4CCNCC4)c4c(C5CC5)cncc4n3)ccn2)n1 [Example 2030, [4-Chloro-1-(2,2,2-trifluoro-ethyl)-1H-pyrazol-3-yl]-[4-(5-cyclopropyl-4-piperazin-1-yl-pyrido[3,4-d]pyrimidin-2-yl)-pyridin-2-yl]-amine]
> 7.00 | OC1CCN(c2nc(-c3ccnc4[nH]c(C5(c6ccccc6)CC5)cc34)nc3cncc(C4CC4)c23)CC1 [Example 1244, 1-{5-Cyclopropyl-2-[2-(1-phenyl-cyclopropyl)-1H-pyrrolo[2,3-b]pyridin-4-yl]-pyrido[3,4-d]pyrimidin-4-yl}-piperidin-4-ol]
